Reference: patent US8163737B2 (Vertex Pharmaceuticals Incorporated, priority 2006, dated 2012)

Molecular target: endogenous CGRP receptor (Homo sapiens, UniProt O60894+Q16602)
Assay: CGRP functional antagonism using SK-N-MC-BLA (4C10), β-lactamase transcriptional reporter assay
Type: cell-based
Details: SK-N-MC (4C10) cells, inhibition of β-lactamase expression in the presence of 200 pM CGRP

Sequence of endogenous CGRP receptor (Q16602 23-461): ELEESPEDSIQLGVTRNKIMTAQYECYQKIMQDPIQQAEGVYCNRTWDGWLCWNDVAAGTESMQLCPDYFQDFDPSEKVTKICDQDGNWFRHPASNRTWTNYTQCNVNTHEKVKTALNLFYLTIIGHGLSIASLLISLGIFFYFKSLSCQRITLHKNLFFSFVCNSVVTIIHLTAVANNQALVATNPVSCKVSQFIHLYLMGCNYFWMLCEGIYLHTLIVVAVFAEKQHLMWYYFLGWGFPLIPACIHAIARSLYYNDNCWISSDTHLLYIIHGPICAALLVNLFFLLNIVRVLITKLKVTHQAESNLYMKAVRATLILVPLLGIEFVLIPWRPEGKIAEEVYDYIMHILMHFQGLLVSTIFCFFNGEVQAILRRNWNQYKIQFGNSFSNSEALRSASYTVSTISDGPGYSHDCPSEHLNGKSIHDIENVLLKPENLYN
Sequence of endogenous CGRP receptor (O60894 27-148): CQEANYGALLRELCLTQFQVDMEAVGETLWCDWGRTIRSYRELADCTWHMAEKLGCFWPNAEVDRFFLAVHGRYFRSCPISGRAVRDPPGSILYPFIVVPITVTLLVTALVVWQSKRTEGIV

| SMILES | IC50 |
| --- | --- |
| CN1CCC(N2CCN(c3ccccc3C3SC(CC(=O)N4CCC(N5CCc6ccccc6NC5=O)CC4)C(=O)N3CCC(C)(C)C)CC2)CC1 (stereo not drawn) [Compound 379] | < 1000 nM |
| CN1CCC(N2CCN(c3ccccc3C3SC(CC(=O)N4CCC(n5c(=O)[nH]c6ncccc65)CC4)C(=O)N3CCC(C)(C)C)CC2)CC1 (stereo not drawn) [Compound 381] | > 5000 nM |
| CN(C)CCCN(C)c1ccccc1C1SC(CC(=O)N2CCC(n3c(=O)[nH]c4ncccc43)CC2)C(=O)N1CCC(C)(C)C (stereo not drawn) [Compound 382] | < 1000 nM |
| CN(C)CCN(C)c1ccccc1C1SC(CC(=O)N2CCC(N3CCc4ccccc4NC3=O)CC2)C(=O)N1CCC(C)(C)C (stereo not drawn) [Compound 383] | 1000 to 5000 nM |
| CC(C)(C)CCN1C(=O)C(CC(=O)N2CCC(N3CCc4ccccc4NC3=O)CC2)SC1c1ccccc1N1CCC(N2CCCCC2)CC1 (stereo not drawn) [Compound 384] | > 5000 nM |
| CN(C)CCCN(C)c1ccccc1C1SC(CC(=O)N2CCC(N3CCc4ccccc4NC3=O)CC2)C(=O)N1CCC(C)(C)C (stereo not drawn) [Compound 385] | 1000 to 5000 nM |
| CC(C)(C)CCN1C(=O)C(CC(=O)N2CCC(n3c(=O)[nH]c4ncccc43)CC2)SC1c1ccccc1N1CCC(N2CCCCC2)CC1 (stereo not drawn) [Compound 387] | < 1000 nM |
| CN1CCN(c2ccccc2[C@@H]2S[C@H](CC(=O)N3CCC(N4CCc5ccccc5NC4=O)CC3)C(=O)N2CCC(C)(C)C)CC1 [Compound 388] | > 5000 nM |
| CC(C)(C)CCN1C(=O)C(CC(=O)N2CCC(n3c(=O)[nH]c4ncccc43)CC2)SC1c1cccc(F)c1N1CCN(C2CC2)CC1 (stereo not drawn) [Compound 390] | > 5000 nM |
| CC(C)(C)CCN1C(=O)C(CC(=O)N2CCC(N3CCc4ccccc4NC3=O)CC2)SC1c1cccc(F)c1N1CCN(CC(F)(F)F)CC1 (stereo not drawn) [Compound 392] | > 5000 nM |
| CC(C)(C)CCN1C(=O)C(CC(=O)N2CCC(n3c(=O)[nH]c4ncccc43)CC2)SC1c1cccc(F)c1N1CCN(CC(F)(F)F)CC1 (stereo not drawn) [Compound 393] | < 1000 nM |
| CC(C)N1CCN(c2c(F)cccc2[C@@H]2S[C@@H](CC(=O)N3CCC(N4CCc5ccccc5NC4=O)CC3)C(=O)N2CCC(C)(C)C)CC1 [Compound 395] | > 5000 nM |
| CC(C)N1CCN(c2c(F)cccc2[C@H]2S[C@@H](CC(=O)N3CCC(N4CCc5ccccc5NC4=O)CC3)C(=O)N2CCC(C)(C)C)CC1 [Compound 396] | 1000 to 5000 nM |
| CC(C)(C)CCN1C(=O)[C@H](CC(=O)N2CCC(N3CCc4ccccc4NC3=O)CC2)SC1c1cccc(F)c1N1CCNCC1 (stereo partly drawn) [Compound 398] | > 5000 nM |
| CC(C)(C)CCN1C(=O)[C@H](CC(=O)N2CCC(N3CCc4ccccc4NC3=O)CC2)SC1c1cccc(F)c1N1CCNCC1 (stereo partly drawn) [Compound 399] | > 5000 nM |
| CN(C)[C@H]1CCN(c2ccccc2C2SC(CC(=O)N3CCC(n4c(=O)[nH]c5ncccc54)CC3)C(=O)N2CCC(C)(C)C)C1 (stereo partly drawn) [Compound 404] | 1000 to 5000 nM |
| CN(c1ccccc1C1SC(CC(=O)N2CCC(n3c(=O)[nH]c4ncccc43)CC2)C(=O)N1CCC(C)(C)C)[C@@H]1CCN(Cc2ccccc2)C1 (stereo partly drawn) [Compound 408] | < 1000 nM |
| CN1CCN(c2ccccc2C2SC(CC(=O)N3CCC(N4CCc5ccccc5NC4=O)CC3)C(=O)N2CC(C)(C)C)CC1 (stereo not drawn) [Compound 410] | < 1000 nM |
| CC(C)(C)CCN1C(=O)C(CC(=O)N2CCC(N3CCc4ccccc4NC3=O)CC2)SC1c1cccc(F)c1N1CC(F)(C2CC2)C1 (stereo not drawn) [Compound 411] | 1000 to 5000 nM |
| CN1CCN(c2cccc(C3SC(CC(=O)N4CCC(N5CCc6ccccc6NC5=O)CC4)C(=O)N3CCC(C)(C)C)c2)CC1 (stereo not drawn) [Compound 412] | < 1000 nM |
| CN1CCN(c2cccc(C3SC(CC(=O)N4CCC(n5c(=O)[nH]c6ncccc65)CC4)C(=O)N3CCC(C)(C)C)c2)CC1 (stereo not drawn) [Compound 413] | < 1000 nM |
| CC(C)(C)CC1SC(CC(=O)N2CCC(n3c(=O)[nH]c4ncccc43)CC2)C(=O)N1c1ccccc1 (stereo not drawn) [Compound 417] | 1000 to 5000 nM |
| CN(C)C1CCN(c2ccccc2C2SC(CC(=O)N3CCC(n4c(=O)[nH]c5ncccc54)CC3)C(=O)N2CCC(C)(C)C)CC1 (stereo not drawn) [Compound 418] | > 5000 nM |
| CN(C)C1CCN(c2ccccc2C2SC(CC(=O)N3CCC(N4CCc5ccccc5NC4=O)CC3)C(=O)N2CCC(C)(C)C)CC1 (stereo not drawn) [Compound 419] | 1000 to 5000 nM |
| O=C(CC1SC(C2CCOCC2)N(c2ccccc2)C1=O)N1CCC(N2CCc3ccccc3NC2=O)CC1 (stereo not drawn) [Compound 420] | > 5000 nM |
| O=C(CC1SC(C2CCCCC2)N(c2ccc(N3CCOCC3)cc2)C1=O)N1CCC(N2CCc3ccccc3NC2=O)CC1 (stereo not drawn) [Compound 421] | < 1000 nM |
| O=C(CC1SC(C2CCOCC2)N(c2ccc(N3CCOCC3)cc2)C1=O)N1CCC(N2CCc3ccccc3NC2=O)CC1 (stereo not drawn) [Compound 422] | < 1000 nM |

| SMILES | IC50 |
| --- | --- |
| CC(C)(C)CC1SC(CC(=O)N2CCC(N3CCc4ccccc4NC3=O)CC2)C(=O)N1c1ccc(N2CCOCC2)cc1 (stereo not drawn) [Compound 423] | < 1000 nM |
| O=C(CC1SC(C2CCCCC2)N(c2ccccc2)C1=O)N1CCC(n2c(=O)[nH]c3ncccc32)CC1 (stereo not drawn) [Compound 424] | < 1000 nM |
| O=C(CC1SC(C2CCCCC2)N(c2ccc(N3CCOCC3)cc2)C1=O)N1CCC(n2c(=O)[nH]c3ncccc32)CC1 (stereo not drawn) [Compound 425] | < 1000 nM |
| O=C(CC1SC(C2CCOCC2)N(c2ccc(N3CCOCC3)cc2)C1=O)N1CCC(n2c(=O)[nH]c3ncccc32)CC1 (stereo not drawn) [Compound 426] | 1000 to 5000 nM |
| CC(C)(C)CC1SC(CC(=O)N2CCC(n3c(=O)[nH]c4ncccc43)CC2)C(=O)N1c1ccccc1N1CCCCC1 (stereo not drawn) [Compound 428] | > 5000 nM |
| CC(C)N1CCN(c2c(F)cccc2[C@@H]2S[C@](C)(CC(=O)N3CCC(N4CCc5ccccc5NC4=O)CC3)C(=O)N2CCC(C)(C)C)CC1 [Compound 430] | > 5000 nM |
| CC(C)N1CCN(c2cccc(Cl)c2C2S[C@H](CC(=O)N3CCC(N4CCc5ccccc5NC4=O)CC3)C(=O)N2CCC(C)(C)C)CC1 (stereo partly drawn) [Compound 433] | > 5000 nM |
| CC(C)N1CCN(c2cccc(Cl)c2C2S[C@@H](CC(=O)N3CCC(n4c(=O)[nH]c5ncccc54)CC3)C(=O)N2CCC(C)(C)C)CC1 (stereo partly drawn) [Compound 438] | < 1000 nM |
| CC(C)(C)CCN1C(=O)[C@H](CC(=O)N2CCC(N3CCc4ccccc4NC3=O)CC2)SC1c1cccc(F)c1N1CCC(N2CCCCC2)CC1 (stereo partly drawn) [Compound 439] | < 1000 nM |
| CC(C)(C)CCN1C(=O)[C@H](CC(=O)N2CCC(n3c(=O)[nH]c4ncccc43)CC2)S[C@H]1c1cccc(F)c1N1CCC(N2CCCCC2)CC1 [Compound 441] | < 1000 nM |
| CC(C)N1CCN(c2ncccc2C2S[C@@H](CC(=O)N3CCC(n4c(=O)[nH]c5ncccc54)CC3)C(=O)N2CCC(C)(C)C)CC1 (stereo partly drawn) [Compound 443] | < 1000 nM |
| CC(C)N1CCN(c2ncccc2C2S[C@@H](CC(=O)N3CCC(N4CCc5ccccc5NC4=O)CC3)C(=O)N2CCC(C)(C)C)CC1 (stereo partly drawn) [Compound 444] | > 5000 nM |
| CC(C)N1CCN(c2c(F)cccc2C2S[C@@](C)(CC(=O)N3CCC(n4c(=O)[nH]c5ncccc54)CC3)C(=O)N2CCC(C)(C)C)CC1 (stereo partly drawn) [Compound 445] | 1000 to 5000 nM |
| CC(C)(C)CCN1C(=O)C(CC(=O)N2CCC(Nc3ccc(Cl)cc3)CC2)SC1c1cccc(F)c1N1CCN(C(C)(C)C)CC1 (stereo not drawn) [Compound 448] | < 1000 nM |
| CC(C)(C)CCN1C(=O)[C@H](CC(=O)N2CCC(n3nnc4ccccc43)CC2)SC1c1cccc(F)c1N1CCN(C(C)(C)C)CC1 (stereo partly drawn) [Compound 451] | 1000 to 5000 nM |
| CC(C)(C)CCN1C(=O)[C@H](CC(=O)N2CCC(O)(c3ccc(F)cc3)CC2)S[C@@H]1c1cccc(F)c1N1CCN(C(C)(C)C)CC1 [Compound 453] | < 1000 nM |
| CC(C)(C)CCN1C(=O)[C@H](CC(=O)N2CCC(O)(c3ccc(F)cc3)CC2)SC1c1cccc(F)c1N1CCN(C(C)(C)C)CC1 (stereo partly drawn) [Compound 454] | > 5000 nM |
| CN(C)C1CCN(c2c(F)cccc2[C@H]2S[C@@H](CC(=O)N3CCC(n4c(=O)[nH]c5ncccc54)CC3)C(=O)N2CCC(C)(C)C)C1 (stereo partly drawn) [Compound 455] | 1000 to 5000 nM |
| CC(C)(C)CCN1C(=O)[C@H](CC(=O)N2CCC(n3c(=O)[nH]c4ncccc43)CC2)S[C@H]1c1cccc(F)c1N1CCC(N)C1 (stereo partly drawn) [Compound 465] | 1000 to 5000 nM |
| CC(C)(C)CCN1C(=O)[C@H](CC(=O)N2CCC(N3CCc4ccccc4NC3=O)CC2)SC1c1cccc(F)c1N1CCC(N)C1 (stereo partly drawn) [Compound 466] | < 1000 nM |
| CC(C)(C)CCN1C(=O)[C@H](CC(=O)N2CCC(N3Cc4ccccc4NC3=O)CC2)SC1c1cccc(F)c1N1CCC(N)C1 (stereo partly drawn) [Compound 467] | 1000 to 5000 nM |
| CC(C)(C)CCN1C(=O)[C@H](CC(=O)N2CCC(n3c(=O)[nH]c4ncccc43)CC2)S[C@H]1c1cccc(F)c1N1CCC(O)C1 (stereo partly drawn) [Compound 468] | < 1000 nM |
| CC(C)(C)CCN1C(=O)[C@H](CC(=O)N2CCC(N3Cc4ccccc4NC3=O)CC2)S[C@H]1c1cccc(F)c1N1CCC(N)C1 (stereo partly drawn) [Compound 472] | < 1000 nM |
| C[C@@H]1CN(c2c(F)cccc2[C@@H]2S[C@@H](CC(=O)N3CCC(N4CCc5ccccc5NC4=O)CC3)C(=O)N2CCC(C)(C)C)C[C@H](C)N1 [Compound 476] | > 5000 nM |
| CCCN1C(=O)[C@H](CC(=O)N2CCC(N3CCc4ccccc4NC3=O)CC2)SC1c1cccc(F)c1N1CCN(C(C)(C)C)CC1 (stereo partly drawn) [Compound 536] | < 1000 nM |
| CCCN1C(=O)[C@H](CC(=O)N2CCC(N3CCc4ccccc4NC3=O)CC2)SC1c1cccc(F)c1N1CCN(C(C)(C)C)CC1 (stereo partly drawn) [Compound 537] | < 1000 nM |
| CC(C)(C)CCN1C(=O)[C@H](CC(=O)N2CCC(n3c(=O)[nH]c4ncccc43)CC2)S[C@H]1c1cccc(F)c1N1CCNCC1 [Compound 546] | < 1000 nM |
